Results on nine compounds are retold here after publication PMC7501440 (Heliyon, 2020).

SMILES strings stand for the structures. Read-outs that look alike come from different tables or passages of the source.

For one experiment, the system named is AChE. Set-up: method as in PMID 17962731. The note with it: AChE inhibition; cited from earlier work.
Experiment [1] addresses T1, Human acetycholinesterase (hAChE) (Homo sapiens, UniProt P22303).
T1 construct: purchased Sigma
The experiment in a line: hAChE inhibition assay, modified Ellman's colorimetric protocol. Type of experiment: biochemical. The protocol: (§1) Human acetycholinesterase (hAChE) activities were determined with a slight modification of Ellman's colorimetric protocol. […] The bioactivity was determined by evaluating the hydrolysis rate of acetylthiocholine iodide (ATCI, 0.1 mM) with the final volume of 300 μL with a phosphate buffer of 180 μL of 100 mM, pH 7.3 and 2 mM DTNB 0.09U of hAChE (Sigma) were applied to this solution and pre-incubated for 45 min at room temperature. The 96-well microplate was read in a microplate reader (Ensight Multimode Reader, Perkin Elmer) at 412 nm after adding DTNB and ATCI. The enzyme kinetic parameters were determined by incubating the substrate at multiple concentrations with or without test inhibitor by double-reciprocal (Lineweaver- Burk) plots in 0.09U of hAChE. From the Lineweaver-Burk plots, the inhibition mechanisms were measured graphically. The kinetics were performed using a series of concentrations of 4a to 4e and substrate AChI at 412 nm. The quantitative datas were expressed as mean ± SD results from three independent experiments. GraphPad Prism version 6.01 (GraphPad Software Inc., San Diego, USA) was used for regression analysis to calculate the IC50 values and the enzyme kinetic parameters (Km, Vmax). The IC50 and enzyme kinetics values (Vmax and Km) were calculated by this formula IC50 Y = min + max-min/1+(X/EC50)^−Hillslops. . Vmax and Km Y = Vmax∗X/(Km + X).
(§2) An evaluation of the therapeutic potential in the treatment of AD of target compounds 4a, 4b, 4c, 4d and 4e were measured for AChE inhibitory activity using the Ellman method. To find the inhibitory effects, the test compounds were incubated with multiple concentrations of human AChE. […] These compounds were designed from the trans-tephrostachin. It was isolated and structuraly characterized from Tephrosia purpurea in our previous studies. To investigate the mechanism of trans-tephrostachin derivatives against AChE, kinetic studies were conducted for all compounds. Such plots presented a secondary plot of Km/Vmax versus test compound concentrations for the Km and Vmax. […] Compound 4a is a trans-tephrostachin which was isolated and structurally characterized previously.
(DTNB colorimetry detects thiols as they appear.)

In experiment [2] the target is T1, Human acetycholinesterase (hAChE). The experiment in a line: hAChE enzyme kinetics, Lineweaver-Burk and secondary plots. Type of experiment: biochemical. The note with it: for Vmax: hAChE in presence of inhibitor, without inhibitor 0.34 ± 0.01; for Inhibition type: hAChE, Lineweaver-Burk plots. The protocol: as §1, §2
The mark [3] stands for this setting: human AChE, Ellman method, average of three sets of assays, read-out: IC50 Concentration.
The mark [4] stands for this setting: human AChE, secondary plot of Km/Vmax versus compound concentration, read-out: Ki.

T1 sequence (P22303 32-614): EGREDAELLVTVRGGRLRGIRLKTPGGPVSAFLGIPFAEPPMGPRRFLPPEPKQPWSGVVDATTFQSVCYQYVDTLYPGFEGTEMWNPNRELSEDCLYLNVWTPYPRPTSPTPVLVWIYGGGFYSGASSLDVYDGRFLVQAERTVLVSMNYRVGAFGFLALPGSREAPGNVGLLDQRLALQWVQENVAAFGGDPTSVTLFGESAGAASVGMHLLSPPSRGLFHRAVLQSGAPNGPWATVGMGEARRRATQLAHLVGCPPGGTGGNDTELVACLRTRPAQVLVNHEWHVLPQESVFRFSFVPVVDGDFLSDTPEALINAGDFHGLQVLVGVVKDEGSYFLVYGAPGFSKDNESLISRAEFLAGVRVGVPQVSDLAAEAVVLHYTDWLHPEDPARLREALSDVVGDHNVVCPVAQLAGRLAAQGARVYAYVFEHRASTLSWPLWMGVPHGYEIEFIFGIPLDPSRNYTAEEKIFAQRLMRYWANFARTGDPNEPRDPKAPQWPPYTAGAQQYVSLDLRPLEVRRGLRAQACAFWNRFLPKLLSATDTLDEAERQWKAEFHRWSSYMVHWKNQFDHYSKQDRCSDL

On to `O=c1c(O)c(-c2ccc(O)c(O)c2)oc2cc(O)cc(O)c12` [quercetin], for which the IC50 in the experiment on AChE is […].
The term Ki denotes the equilibrium dissociation constant of an inhibitor or competing ligand from its target. As to `CC(C)(O)/C=C/c1c(OC(=O)c2ccccc2)cc(OC(=O)c2ccccc2)c2c(=O)cc(-c3ccccc3)oc12` [Compound 4c, (E)-8-(3-hydroxy-3-methylbut-1-en-1-yl)-4-oxo-2-phenyl-4H-chromene-5,7-diyl dibenzoate], in experiment [1] (setting [3]), the IC50 was determined as 10.6 ± 2.8 µM. Besides, in experiment [2], the Vmax stood at 0.14 ± 0.1 and the Inhibition type result is reported as “mixed type inhibition”. The Ki in experiment [2] (setting [4]) came out at 46.4 ± 9.5 µM.
With `C[C@@H]1O[C@@H](Oc2c(-c3ccc(O)c(O)c3)oc3cc(O)cc(O)c3c2=O)[C@H](O)[C@H](O)[C@H]1O` [quercitrin], the IC50 with AChE was 66.9 µM.
For `CC(=O)Oc1cc(OC(C)=O)c2c(=O)cc(-c3ccccc3)oc2c1/C=C/C(C)(C)O` [Compound 4e, (E)-8-(3-hydroxy-3-methylbut-1-en-1-yl)-4-oxo-2-phenyl-4H-chromene-5,7-diyl diacetate], in experiment [1] (setting [3]), the IC50 came out at 28.1 ± 2.1 µM. Besides, in experiment [2], the Vmax is reported as 0.36 ± 0.2 and the Inhibition type entry was “Competitive inhibition”. The Ki in experiment [2] (setting [4]) was determined as 198 ± 10.1 µM.
Regarding `O=C(/C=C/c1ccc(O)cc1)OC[C@H]1O[C@@H](Oc2c(-c3ccc(O)cc3)oc3cc(O)cc(O)c3c2=O)[C@H](O)[C@@H](O)[C@@H]1O` [tiliroside], in the experiment with AChE, the IC50 is 23.5 µM.
Turning to `CC(C)(O)/C=C/c1c(OC(=O)c2ccc([N+](=O)[O-])cc2)cc(OC(=O)c2ccc([N+](=O)[O-])cc2)c2c(=O)cc(-c3ccccc3)oc12` [Compound 4d, (E)-8-(3-hydroxy-3-methylbut-1-en-1-yl)-4-oxo-2-phenyl-4H-chromene-5,7-diyl bis(4-nitrobenzoate)], the IC50 in experiment [1] came to 10.3 µM. In experiment [2], affinity was put at a Ki of 8.25 ± 1.7 µM, the Vmax was 0.15 ± 0.01 and the Inhibition type result is on record as “mixed type inhibition”.
As to `CCOc1cc(OCC)c2c(=O)cc(-c3ccccc3)oc2c1/C=C/C(C)(C)O` [Compound 4b, (E)-5,7-diethoxy-8-(3-hydroxy-3-methylbut-1-en-1-yl)-2-phenyl-4H-chromen-4-one], the IC50 in experiment [1] (setting [3]) turned out to be 35.6 ± 2.8 µM. Also, in experiment [2], the Vmax turned out to be 0.34 ± 0.01 and the Inhibition type result was “Competitive inhibition”. The Ki in experiment [2] (setting [4]) is 206 ± 12 µM.
On to `C[n+]1c2n(c(=O)c3ccccc31)CCc1c-2[nH]c2ccccc12` [dehydroevodiamine], for which the IC50 in the experiment with AChE was 37.8 µM.
On to `COc1cc(OC)c2c(=O)cc(-c3ccccc3)oc2c1/C=C/C(C)(C)O` [Compound 4a, (E)-8-(3-hydroxy-3-methylbut-1-en-1-yl)-5,7-dimethoxy-2-phenyl-4H-chromen-4-one], for which the IC50 in experiment [1] (setting [3]) worked out at 35 ± 1.2 µM. For the same compound, in experiment [2], the Vmax is on record as 0.13 ± 0.08 and the Inhibition type result was “mixed type inhibition”. For the same compound, the Ki in experiment [2] (setting [4]) amounted to 29.3 ± 7.2 µM.
